Series [1] can be described thus: RP-TLC lipophilicity (RM0, log PTLC, C0), silica gel RP-18F254, acetone/TRIS buffer pH 7.4. The settings on record: for RM0: RP-TLC, RM extrapolated to 0% acetone, TRIS buffer pH 7.4; for log PTLC / chromatographic logP: from RM0 by calibration curve log PTLC = 1.2862RM0 + 0.2061; for C0: chromatography hydrophobic index, C0 = −RM0/b. Format: physicochemical. Here is the method: In connection with this, in the next stage of the study, the parameters of lipophilicity of the tested compounds were determined experimentally. […] This technique was used to determine the retardation coefficient Rf for each compound in eight mobile phases consisting of acetone and Tris buffer in different volume ratios (50–85% acetone). Next, the Rf values were converted to the chromatographic parameter RM, and then the obtained values were extrapolated to 0% acetone content in the mobile phase obtaining the lipophilicity parameter RM0 (Table S2).
The parameter RM0 can be correlated to an experimental log P lipophilicity parameter of chemical molecules (log PTLC) by applying a calibration curve. The calibration curve was obtained by determining the Rf value for standard substances with a known log Plit value using the RP-TLC method under conditions analogous to those of the tested substances. After calculating the RM and RM0 values, the dependence of the log Plit parameter on the experimentally obtained RM0 values for standards was determined (Table 2).
The chromatographic parameter of lipophilicity was determined by means of Soczewiński–Wachtmeister’s method. […] The acetone ratio was 50 to 85% (v/v) in increments of 5%. The tested compounds in the form of an ethanol solution at a concentration of 2.0 mg/mL each were spotted on chromatographic plates at an amount of 2 µL each. Before analysis, the chromatography chamber (Camag, Switzerland) was saturated with the mobile phase (50 mL) for 30 min. After development at 20 ± 2 °C and subsequent drying, the chromatograms were observed under UV light at 254 nm by using a Camag UV lamp (Muttenz, Switzerland). Each analysis was performed in triplicate. The average value of the retardation factor (Rf) was used to calculate RM using Equation (1):(1) RM=log(1−Rf/Rf)
In addition, the chromatographic parameter of lipophilicity RM0 and b value allowed the determination of the chromatography hydrophobic index C0 by using the following formula:(3) C0=− RM0/b

For series [2] the following is noted: standard for calibration curve; cited from earlier work.
Another series relates to HCT-116 cells. Conditions: cited from earlier work; for IC50: MTT assay, read-out: IC50 HCT116; for SI HCT116: selectivity index vs HaCaT.
A further series concerns PC3. Further details: method as in earlier work. The settings on record: cited from earlier work; for IC50: MTT assay; for SI PC3: selectivity index vs HaCaT.
Another series has as its system MDA. Details: method as in earlier work. Conditions: cited from earlier work; for IC50: MTT assay; for SI MDA: selectivity index vs HaCaT. (Formazan colour is commonly taken as a measure of viable cells.)
In another series the test system is MiaPaCa-2. Details: method as in earlier work. The settings on record: cited from earlier work; for IC50: MTT assay; for SI MiaPaCa-2: selectivity index vs HaCaT.
The subject of series [3] is standard strains of staphylococci. The settings on record: cited from earlier work; for antibacterial activity: mainly against standard strains of staphylococci.
Another series concerns HaCaT cells. Conditions: MTT assay, normal cells; cited from earlier work.
The subject of the next series is A549 cells. The settings on record: cited from earlier work; for IC50: MTT assay.

For orientation: IC50 means the concentration that gives 50% inhibition. As usually defined, the chromatographic logP is lipophilicity estimated from chromatographic retention. Broadly, the MIC is the least concentration at which growth counts as inhibited.

`CC(=O)Nc1ccccc1` [acetanilide, reference compound]: in [1], the RM0 is given as 0.78 and the “log PTLC” value is 1.21. Moreover, the “log Plit” value in [2] is 1.21 [35].
As for `c1ccc2cc3ccccc3cc2c1` [anthracene, reference compound], in series [2], the “log Plit” value was 4.45 [36].
Consider `O=C(NCCCl)NCCCN1c2cc(Cl)ccc2Sc2cc3ccccc3nc21` [compound 9], for which, in the series with HCT-116 cells, the 50% inhibitory concentration (IC50) was 10.4 ± 1.6 µM and the “SI HCT116” value was 8.8. Further, in the series on PC3, the IC50 is 34.8 ± 9.8 µM and the “SI PC3” value is 2.8. Further, in the series on MDA, the IC50 was 48.6 ± 7.3 µM and the “SI MDA” value was 2.0. Besides, in the series on MiaPaCa-2, the concentration for half-maximal inhibition (IC50) is 23.2 ± 2.7 µM and the “SI MiaPaCa-2” value is reported as 4.3. In addition, the antibacterial activity result in series [3] was “moderate antibacterial activity”. Besides, the IC50 in the series on HaCaT cells is less than 100 µM. The concentration for half-maximal inhibition (IC50) with A549 cells is 9.3 ± 1.2 µM. Besides, the “SI A549” value in the series with A549 cells (selectivity index vs HaCaT) was 10.7. In series [1], the RM0 was 3.47, the C0 was found to be 76.43 and the chromatographic logP worked out at 4.66.
In the case of `O=C(NCCCl)NCCCCN1c2cc(Cl)ccc2Sc2cc3ccccc3nc21` [compound 15], in the series on HCT-116 cells, the IC50 was 11.3 ± 2.2 µM and the “SI HCT116” value is listed as 0.1. In the series with PC3, the IC50 was 76.6 ± 9.8 µM and the “SI PC3” value is on record as 0.1. In the series with MDA, the IC50 is 7.4 ± 1.2 µM and the “SI MDA” value is 0.1. Also, in the series with MiaPaCa-2, the IC50 is 6.4 ± 2.4 µM and the “SI MiaPaCa-2” value is recorded as 0.2. Further, the antibacterial activity result in [3] is listed as “moderate antibacterial activity”. The MIC in series [3] (standard strains) was 2 to 8 mg/L. Moreover, the IC50 in the series with HaCaT cells was 1.1 ± 0.3 µM. For the same molecule, the IC50 in the series on A549 cells is 6.98 µM. For the same molecule, in [1], the RM0 is reported as 3.59, the C0 is recorded as 76.22 and the chromatographic logP worked out at 4.82.
On to `Clc1ccc(C(c2ccc(Cl)cc2)C(Cl)(Cl)Cl)cc1` [p,p’-DDT, reference compound], for which, in [1], the RM0 is on record as 4.69 and the “log PTLC” value is listed as 6.24. In addition, in series [2], the “log Plit” value was 6.38 [37].

The values above are taken from PMC12384454, “Study of the Lipophilicity of Tetracyclic Anticancer Azaphenothiazines” (Biomolecules, 2025).
